{
  "source": "paper PMC3470887",
  "about": "“Protegrin-1 Inhibits Dengue NS2B-NS3 Serine Protease and Viral Replication in MK2 Cells” (Journal of Biomedicine and Biotechnology, 2012)",
  "key": {"DENV-2": {"tested_on": "DENV-2", "test": "DENV-2 replication in infected MK2 cells, viral RNA by real-time PCR", "format": "cell-based, Dengue virus serotype 2", "details": "inferred from lower inhibition percentage of low concentrations at 48 and 72 hrs versus 24 hrs", "protocol": "The MK2 cell lines were grown in a 24-well tissue culture plate (1 × 10^5 cells/well), incubated 24 hrs under optimal conditions (37°C and 5% CO2). DENV-2 was added to the wells (MOI of 2) followed by incubation for 1 hr with gentle shaking every 10 min for optimal virus to cell contact. The virus supernatant was removed, and the cells were washed twice with fresh serum free DMEM media to remove residual virus. New complete DMEM media containing 2.5, 7.5 and 12.5 μM of PG-1 were added and the cultures were incubated for 24, 48 and 72 hrs. Afterwards, cellular supernatants were collected and stored at −80°C for viral quantification by real-time PCR.\nFor quantification of DENV-2 copies, the standard curve was generated by 10-fold serial dilution of known copies of DENV-2 RNA. Viral RNA was extracted from culture supernatant using QIAmp viral RNA minikit (QIAGEN, Germany) according to the manufacturer's instructions. A fragment located at the 5′UTR region of the virus genome was used to generate the primers. One-step RT-PCR using SyBr Green Master Kit (Qiagen, Germany) was used to conduct absolute quantification using ABI7300 machine from Applied Biosystems (Foster City, CA). […] Results were analyzed using Sequence Detection Software Version 1.3 (Applied Biosystems, Foster City, CA, USA)."}, "dengue NS2B-NS3pro": {"molecular_target": "dengue NS2B-NS3pro (Dengue virus type 2, UniProt P14340)", "sequence (P14340 1394-1440 limits assumed)": "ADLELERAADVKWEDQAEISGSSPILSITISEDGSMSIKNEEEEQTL", "sequence (P14340 1476-1660 limits assumed)": "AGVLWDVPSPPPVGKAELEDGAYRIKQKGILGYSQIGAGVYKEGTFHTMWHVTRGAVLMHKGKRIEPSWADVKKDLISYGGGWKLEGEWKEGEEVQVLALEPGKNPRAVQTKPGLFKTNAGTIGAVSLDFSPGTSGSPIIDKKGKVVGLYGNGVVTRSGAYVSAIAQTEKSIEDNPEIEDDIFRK", "test": "Dengue NS2B-NS3pro protease inhibition assay (fluorogenic substrate Boc-Gly-Arg-Arg-MCA)", "format": "biochemical, DENV-2", "protocol": "The bioassay used in this study was modified from the method published by Kiat and coworkers. Reaction mixtures with total volume of 200 μL were prepared. These reaction mixtures consisted of 100 μM fluorogenic peptide substrate (Boc-Gly-Arg-Arg-MCA), 2 μM NS2B-NS3pro complex, with or without PG-1 of varying concentrations, buffered at pH 8.5 with 200 mM Tris-HCl. The PG-1 was initially prepared in Tris-HCl buffer and assayed at five different concentrations. The reaction mixtures without fluorogenic peptide substrate were firstly incubated at 37°Cfor 30 minutes. Subsequently, the substrate was added and the mixture was further incubated at the same temperature for 30 minutes. Triplicates were performed for all measurements and the readings were taken using Tecan Infinite M200 Pro fluorescence spectrophotometer. Substrate cleavage was optimized at the emission at 440 nm upon excitation at 350 nm. The readings were then used for calculating Km values of peptide substrate and IC50 values of peptide inhibitors using nonlinear regression models in GraphPad Prism 5.01 software."}},
  "data": [
    {"smiles": "CC(C)C[C@H](NC(=O)[C@H](CCCNC(=N)N)NC(=O)CNC(=O)CNC(=O)[C@@H](N)CCCNC(=N)N)C(=O)N[C@H]1CSSC[C@@H](C(=O)N[C@H](C(=O)NCC(=O)N[C@@H](CCCNC(=N)N)C(N)=O)C(C)C)NC(=O)[C@H](C(C)C)NC(=O)[C@@H]2CSSC[C@H](NC(=O)[C@H](Cc3ccc(O)cc3)NC1=O)C(=O)N[C@@H](CCCNC(=N)N)C(=O)N[C@@H](CCCNC(=N)N)C(=O)N[C@@H](CCCNC(=N)N)C(=O)N[C@@H](Cc1ccccc1)C(=O)N2", "note": "[PG-1]", "values": [
      {"measurement": "PG-1 stability in culture media", "setting": "DENV-2", "result": "declined with longer incubation in culture media"},
      {"measurement": "IC50", "setting": "dengue NS2B-NS3pro; 2 μM NS2B-NS3pro, 100 μM Boc-Gly-Arg-Arg-MCA, 200 mM Tris-HCl pH 8.5, 37°C, 30 min pre-incubation + 30 min, triplicates, nonlinear regression GraphPad Prism", "result": 11.7, "unit": "µM"},
      {"measurement": "inhibition at 40 µM", "setting": "dengue NS2B-NS3pro; PG-1 at 40 μM, assayed at five concentrations, 10–160 μM", "result": 95.7, "unit": "%"},
      {"measurement": "Ki", "setting": "dengue NS2B-NS3pro; kinetic assay, PG-1 0, 2.5, 5, 10 and 20 μM, Michaelis-Menten nonlinear regression, GraphPad Prism, read-out: Ki (inhibition constant)", "result": 5.85, "unit": "µM"}
    ]}
  ]
}
